The nature of data set [1]: Stability in Swiss Webster mouse serum assessed as functional compound remaining after 6 hrs. The settings on record: read-out: Stability. The format is ADME, cell-free.
Data set [2] deals with T1, Placenta growth factor (Homo sapiens, UniProt P49763).
T1 sequence (P49763 whole entry): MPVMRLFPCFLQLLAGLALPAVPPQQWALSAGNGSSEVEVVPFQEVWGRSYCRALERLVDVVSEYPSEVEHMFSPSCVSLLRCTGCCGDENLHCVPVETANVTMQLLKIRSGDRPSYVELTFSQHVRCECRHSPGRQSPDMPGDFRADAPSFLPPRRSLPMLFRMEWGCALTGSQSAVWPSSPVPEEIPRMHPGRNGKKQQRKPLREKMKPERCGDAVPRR
Briefly: Binding affinity to human PlGF-1. The conditions noted are these: read-out: Kd.

Data set [3] deals with T2, Placenta growth factor (Mus musculus, UniProt P49764).
T2 sequence (P49764 whole entry): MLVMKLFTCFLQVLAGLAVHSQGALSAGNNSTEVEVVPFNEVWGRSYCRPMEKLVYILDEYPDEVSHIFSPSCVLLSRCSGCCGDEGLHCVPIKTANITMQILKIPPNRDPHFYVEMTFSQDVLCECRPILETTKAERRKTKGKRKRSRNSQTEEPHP
Kind of data set: Inhibition of mouse PlGF-VEGFR-1 interaction by ELISA. (In general: ELISA stands for enzyme-linked immunosorbent assay.)

The target of data set [4] is T1, Placenta growth factor. Kind of data set: Inhibition of human PlGF-1-VEGFR-1 interaction by ELISA.

The record followed here is ChEMBL document CHEMBL1687887, “Evolution of potent and stable placental-growth-factor-1-targeting CovX-bodies from phage display peptide discovery” (J Med Chem, 2011).

pIC50, pKd: −log10 of the molar value. Bridge positions count the residues as written; N and C are the ends. Peptide text beside a SMILES is read from it. * marks the point of attachment. X1 = O=C(COCC(=O)*)Nc1ccc(CCC(=O)N2CCC2=O)cc1 Bounds are passed on as bounds.

In general, pKd refers to −log10 of the Kd, conventionally taken in molar units. One may read the pIC50 as the negative decadic logarithm of the IC50, by convention in mol/L. Read a high pIC50 as a small IC50. On to `CC[C@H](C)[C@@H]1NC(=O)[C@H](Cc2ccc(O)cc2)NC(=O)[C@H](Cc2cnc[nH]2)NC(=O)[C@@H](NC(=O)[C@@H](NC(=O)[C@H](CCC(=O)O)NC(=O)[C@H](Cc2ccccc2)NC(C)=O)C(C)C)CSSC[C@@H](C(=O)N[C@H](C(=O)N[C@@H](CCCN=C(N)N)C(=O)N[C@@H](Cc2ccc(O)cc2)C(N)=O)[C@@H](C)O)NC(=O)[C@H](Cc2cnc[nH]2)NC(=O)[C@@H]2CCCN2C(=O)[C@H](CC(C)C)NC(=O)[C@H](CCCCNC(=O)COCC(=O)Nc2ccc(CCC(=O)N3CCC3=O)cc2)NC1=O`, for which the remaining at 6 h in data set [1] is 4%. The negative logarithm of the Kd (pKd) in data set [2] is 9.52. This molecule gave a negative-log IC50 (pIC50) in data set [3] of 9.15. For the molecule `CC[C@H](C)[C@@H]1NC(=O)[C@H](Cc2ccc(O)cc2)NC(=O)[C@H](Cc2cnc[nH]2)NC(=O)[C@@H](NC(=O)[C@@H](NC(=O)[C@H](CCC(=O)O)NC(=O)[C@H](Cc2ccccc2)NC(C)=O)C(C)C)CSSC[C@@H](C(=O)N[C@@H](C(=O)N[C@H](CCCN=C(N)N)C(=O)N[C@H](Cc2ccc(O)cc2)C(N)=O)[C@@H](C)O)NC(=O)[C@H](Cc2cnc[nH]2)NC(=O)[C@@H]2CCCN2C(=O)[C@H](CC(C)C)NC(=O)[C@H](CCCCNC(=O)COCC(=O)Nc2ccc(CCC(=O)N3CCC3=O)cc2)NC1=O`, the remaining at 6 h in data set [1] was found to be 23%. The pIC50 in data set [3] was 9.70. For the molecule `CSCC[C@H](NC(=O)[C@@H](NC(=O)[C@H](CCCCNC(C)=O)NC(=O)[C@@H]1CSSC[C@H](NC(=O)[C@H](CCCCNC(=O)COCC(=O)Nc2ccc(CCC(=O)N3CCC3=O)cc2)NC(=O)[C@H](CC(=O)O)NC(=O)[C@H](Cc2ccccc2)NC(C)=O)C(=O)N[C@@H](CC(N)=O)C(=O)N[C@@H](Cc2c[nH]c3ccccc23)C(=O)N[C@@H](C(C)C)C(=O)N[C@@H]([C@@H](C)O)C(=O)N[C@@H](CC(C)C)C(=O)N2CCC[C@H]2C(=O)N[C@@H](Cc2cnc[nH]2)C(=O)N1)C(C)C)C(N)=O` (Ac-FDK(X1)CNWVTLPHCK(Ac)VM-NH2; disulfide 4-12), the pKd in data set [2] was less than 6.00. Further, the pIC50 in data set [3] was less than 6.00. On to `CSCC[C@H](NC(=O)[C@@H](NC(=O)[C@H](CCCCNC(C)=O)NC(=O)[C@@H]1CSSC[C@H](NC(=O)[C@@H](NC(=O)[C@H](CC(=O)O)NC(=O)[C@H](Cc2ccccc2)NC(C)=O)C(C)C)C(=O)N[C@@H](CCCCNC(=O)COCC(=O)Nc2ccc(CCC(=O)N3CCC3=O)cc2)C(=O)N[C@@H](Cc2c[nH]c3ccccc23)C(=O)N[C@@H](C(C)C)C(=O)N[C@@H]([C@@H](C)O)C(=O)N[C@@H](CC(C)C)C(=O)N2CCC[C@H]2C(=O)N[C@@H](Cc2cnc[nH]2)C(=O)N1)C(C)C)C(N)=O` (Ac-FDVCK(X1)WVTLPHCK(Ac)VM-NH2; disulfide 4-12), for which, in data set [2], the pKd was 8.22. The same molecule showed a pIC50 in data set [3] of 6.20.

Take `CSCC[C@H](NC(=O)[C@@H](NC(=O)[C@H](CCCCN)NC(=O)[C@@H]1CSSC[C@H](NC(=O)[C@@H](NC(=O)[C@H](CC(=O)O)NC(=O)[C@H](Cc2ccccc2)NC(C)=O)C(C)C)C(=O)N[C@@H](CCCCN)C(=O)N[C@@H](Cc2c[nH]c3ccccc23)C(=O)N[C@@H](C(C)C)C(=O)N[C@@H]([C@@H](C)O)C(=O)N[C@@H](CC(C)C)C(=O)N2CCC[C@H]2C(=O)N[C@@H](Cc2cnc[nH]2)C(=O)N1)C(C)C)C(N)=O` (Ac-FDVCKWVTLPHCKVM-NH2; disulfide 4-12): the pKd in data set [2] was 6.00. In data set [4], this molecule had a negative-log IC50 (pIC50) of 6.00. For `CSCC[C@H](NC(=O)[C@@H](NC(=O)[C@H](CCCCNC(C)=O)NC(=O)[C@@H]1CSSC[C@H](NC(=O)[C@@H](NC(=O)[C@H](CC(=O)O)NC(=O)[C@H](Cc2ccccc2)NC(C)=O)C(C)C)C(=O)N[C@@H](CC(N)=O)C(=O)N[C@@H](CCCCNC(=O)COCC(=O)Nc2ccc(CCC(=O)N3CCC3=O)cc2)C(=O)N[C@@H](C(C)C)C(=O)N[C@@H]([C@@H](C)O)C(=O)N[C@@H](CC(C)C)C(=O)N2CCC[C@H]2C(=O)N[C@@H](Cc2cnc[nH]2)C(=O)N1)C(C)C)C(N)=O` (Ac-FDVCNK(X1)VTLPHCK(Ac)VM-NH2; disulfide 4-12), the negative-log Kd (pKd) in data set [2] is less than 6.00. Besides, the pIC50 in data set [3] was less than 6.00. In the case of `CSCC[C@H](NC(=O)[C@@H](NC(=O)[C@H](CCCCNC(C)=O)NC(=O)[C@@H]1CSSC[C@H](NC(=O)[C@@H](NC(=O)[C@H](CC(=O)O)NC(=O)[C@H](Cc2ccccc2)NC(C)=O)C(C)C)C(=O)N[C@@H](CC(N)=O)C(=O)N[C@@H](Cc2c[nH]c3ccccc23)C(=O)N[C@@H](CCCCNC(=O)COCC(=O)Nc2ccc(CCC(=O)N3CCC3=O)cc2)C(=O)N[C@@H]([C@@H](C)O)C(=O)N[C@@H](CC(C)C)C(=O)N2CCC[C@H]2C(=O)N[C@@H](Cc2cnc[nH]2)C(=O)N1)C(C)C)C(N)=O` (Ac-FDVCNWK(X1)TLPHCK(Ac)VM-NH2; disulfide 4-12), the negative-log Kd (pKd) in data set [2] was less than 6.00. Further, the negative-log IC50 (pIC50) in data set [3] is less than 6.00. As to `CSCC[C@H](NC(=O)[C@@H](NC(=O)[C@H](CCCCNC(C)=O)NC(=O)[C@@H]1CSSC[C@H](NC(=O)[C@@H](NC(=O)[C@H](CC(=O)O)NC(=O)[C@H](Cc2ccccc2)NC(C)=O)C(C)C)C(=O)N[C@@H](CC(N)=O)C(=O)N[C@@H](Cc2c[nH]c3ccccc23)C(=O)N[C@@H](C(C)C)C(=O)N[C@@H]([C@@H](C)O)C(=O)N[C@@H](CCCCNC(=O)COCC(=O)Nc2ccc(CCC(=O)N3CCC3=O)cc2)C(=O)N2CCC[C@H]2C(=O)N[C@@H](Cc2cnc[nH]2)C(=O)N1)C(C)C)C(N)=O` (Ac-FDVCNWVTK(X1)PHCK(Ac)VM-NH2; disulfide 4-12), the pKd in data set [2] is less than 6.00. This molecule showed a negative logarithm of the IC50 (pIC50) in data set [3] of less than 6.00. With `CSCC[C@H](NC(=O)[C@@H](NC(=O)[C@H](CCCCNC(C)=O)NC(=O)[C@@H]1CSSC[C@H](NC(=O)[C@@H](NC(=O)[C@H](CC(=O)O)NC(=O)[C@H](Cc2ccccc2)NC(C)=O)C(C)C)C(=O)N[C@@H](CC(N)=O)C(=O)N[C@@H](Cc2c[nH]c3ccccc23)C(=O)N[C@@H](C(C)C)C(=O)N[C@@H]([C@@H](C)O)C(=O)N[C@@H](CC(C)C)C(=O)N[C@@H](CCCCNC(=O)COCC(=O)Nc2ccc(CCC(=O)N3CCC3=O)cc2)C(=O)N[C@@H](Cc2cnc[nH]2)C(=O)N1)C(C)C)C(N)=O` (Ac-FDVCNWVTLK(X1)HCK(Ac)VM-NH2; disulfide 4-12), the pKd in data set [2] is less than 6.00. In data set [3], this molecule showed a negative logarithm of the IC50 (pIC50) of less than 6.00. With `CSCC[C@H](NC(=O)[C@@H](NC(=O)[C@H](CCCCNC(C)=O)NC(=O)[C@@H]1CSSC[C@H](NC(=O)[C@@H](NC(=O)[C@H](CC(=O)O)NC(=O)[C@H](Cc2ccccc2)NC(C)=O)C(C)C)C(=O)N[C@@H](CC(N)=O)C(=O)N[C@@H](Cc2c[nH]c3ccccc23)C(=O)N[C@@H](C(C)C)C(=O)N[C@@H]([C@@H](C)O)C(=O)N[C@@H](CC(C)C)C(=O)N2CCC[C@H]2C(=O)N[C@@H](CCCCNC(=O)COCC(=O)Nc2ccc(CCC(=O)N3CCC3=O)cc2)C(=O)N1)C(C)C)C(N)=O` (Ac-FDVCNWVTLPK(X1)CK(Ac)VM-NH2; disulfide 4-12), the pKd in data set [2] is less than 6.00. This molecule also had a negative logarithm of the IC50 (pIC50) in data set [3] of less than 6.00. Molecule `CC[C@H](C)[C@@H]1NC(=O)[C@H](Cc2ccc(O)cc2)NC(=O)[C@H](Cc2cnc[nH]2)NC(=O)[C@@H](NC(=O)[C@@H](NC(=O)[C@H](CCC(=O)O)NC(=O)[C@H](Cc2ccccc2)NC(C)=O)C(C)C)CSSC[C@@H](C(=O)N[C@H](C(=O)N[C@@H](CCCN=C(N)N)C(=O)N[C@@H](Cc2ccc(O)cc2)C(N)=O)[C@@H](C)O)NC(=O)[C@H](Cc2cnc[nH]2)NC(=O)[C@@H]2CCCN2C(=O)[C@H](CC(C)C)NC(=O)[C@H](CCCN=C(N)N)NC1=O` (Ac-FEVCHYIRLPHCTRY-NH2; disulfide 4-12) gave a negative logarithm of the IC50 (pIC50) in data set [3] of 6.40. For the molecule `CC[C@H](C)[C@H](NC(=O)[C@H](CC(=O)O)NC(=O)[C@H](Cc1ccc(O)cc1)NC(C)=O)C(=O)N[C@H]1CSSC[C@@H](C(=O)N[C@@H](CCCCN)C(=O)N[C@@H](C)C(=O)N[C@H](C(N)=O)C(C)C)NC(=O)[C@H](Cc2cnc[nH]2)NC(=O)[C@@H]2CCCN2C(=O)[C@H](CC(C)C)NC(=O)[C@H](CCCNC(=N)N)NC(=O)[C@H]([C@@H](C)CC)NC(=O)[C@H](Cc2ccc(O)cc2)NC(=O)[C@H](CCCCN)NC1=O` (Ac-YDICKYIRLPHCKAV-NH2; disulfide 4-12), the pIC50 in data set [4] is 5.05. `CC[C@H](C)[C@H](NC(=O)[C@H](CC(=O)O)NC(=O)[C@H](Cc1ccc(O)cc1)NC(C)=O)C(=O)N[C@H]1CSSC[C@@H](C(=O)N[C@@H](CCCN=C(N)N)C(=O)N[C@@H](C)C(=O)N[C@H](C(N)=O)C(C)C)NC(=O)[C@H](Cc2cnc[nH]2)NC(=O)[C@@H]2CCCN2C(=O)[C@H](CC(C)C)NC(=O)[C@H](CCCNC(=N)N)NC(=O)[C@H]([C@@H](C)CC)NC(=O)[C@H](Cc2ccc(O)cc2)NC(=O)[C@H](CCCCN)NC1=O` (Ac-YDICKYIRLPHCRAV-NH2; disulfide 4-12) gave a pIC50 in data set [4] of 5.05.

In the case of `CSCC[C@H](NC(=O)[C@@H](NC(=O)[C@H](CCCCN)NC(=O)[C@@H]1CSSC[C@H](NC(=O)[C@@H](NC(=O)[C@H](CC(=O)O)NC(=O)[C@H](Cc2ccccc2)NC(=O)COCC(=O)Nc2ccc(CCC(=O)N3CCC3=O)cc2)C(C)C)C(=O)N[C@@H](CCCCN)C(=O)N[C@@H](Cc2c[nH]c3ccccc23)C(=O)N[C@@H](C(C)C)C(=O)N[C@@H]([C@@H](C)O)C(=O)N[C@@H](CC(C)C)C(=O)N2CCC[C@H]2C(=O)N[C@@H](Cc2cnc[nH]2)C(=O)N1)C(C)C)C(N)=O` (X1-FDVCKWVTLPHCKVM-NH2; disulfide 4-12), in data set [2], the pKd is 6.70. Further, in data set [4], the pIC50 was 6.00.
